Assay: Part 2 (MAD): plasma pharmacokinetics after BID oral KAR5585 for 14 days (incl. accumulation ratios and dose proportionality)
Settings: for AUC0-12, Day 1 / AUC0-24, Day 14: mean
[1] = 100 mg KAR5585 BID, fasted, Part 2 Cohort 1
[2] = 100 mg KAR5585 BID, fed, Cohort 2
[3] = 100 mg KAR5585 BID, fed, Part 2 Cohort 2
[4] = 100 mg/dose Fasted Cohort 1, Day 1 AM, Geo. Mean
[5] = 100 mg/dose Fasted Cohort 1, Day 1 AM, Mean
[6] = 100 mg/dose Fasted Cohort 1, Day 14, Geo. Mean
[7] = 100 mg/dose Fasted Cohort 1, Day 14, Mean
[8] = 100 mg/dose Fed Cohort 2, Day 1 AM, Geo. Mean
[9] = 100 mg/dose Fed Cohort 2, Day 1 AM, Mean
[10] = 100 mg/dose Fed Cohort 2, Day 1 PM, Geo. Mean
[11] = 100 mg/dose Fed Cohort 2, Day 1 PM, Mean
[12] = 100 mg/dose Fed Cohort 2, Day 7 AM, Geo Mean
[13] = 100 mg/dose Fed Cohort 2, Day 7 AM, Mean
[14] = 100 mg/dose Fed Cohort 2, Day 7 PM, Geo Mean
[15] = 100 mg/dose Fed Cohort 2, Day 7 PM, Mean
[16] = 100 mg/dose Fed Cohort 2, Day 14, Geo Mean
[17] = 100 mg/dose Fed Cohort 2, Day 14, Mean
[18] = 200 mg/dose Fed Cohort 3, Day 1 AM, Geo Mean
[19] = 200 mg/dose Fed Cohort 3, Day 1 AM, Mean
[20] = 200 mg/dose Fed Cohort 3, Day 1 PM, Geo. Mean

From the text: Food effect was to be evaluated in Part 1, Period 2.
Pharmacokinetic data were to be summarized descriptively.

For CCOC(=O)[C@@H]1CC2(CCN(c3cc(O[C@H](c4ccc(Cl)cc4-c4ccccc4)C(F)(F)F)nc(N)n3)CC2)CN1 [KAR5585, (S)-ethyl 8-(2-amino-6-((R)-1-(5-chloro-[1,1′-biphenyl]-2-yl)-2,2,2-trifluoroethoxy)pyrimidin-4-yl)-2,8-diazaspiro[4.5]decane-3-carboxylate], the “half-life, Day 14” value (100 mg KAR5585 BID, fasted) was 2.49 h, the “time peak plasma concentrations were reached, Day 1” value (100 mg KAR5585 BID, fasted, Cohort 1) was 0.75 to 2.0 h and the “AUC0-12, Day 1” value [1] was 62.8 ng·h/mL. For the same compound, the “AUC0-24, Day 14” value [1] was 99.8 ng·h/mL, the “Mean CL/F, Day 1” value (100 mg KAR5585 BID, fed) was 2100 L/h and the “Mean steady-state CL/F, Day 14” value (100 mg KAR5585 BID, fed) was 880 L/h. For the same compound, the “mean apparent elimination half-life, Day 14” value (100 mg KAR5585 BID, fed) was 2.73 h, the “Cmax (peak mean concentration), Day 1” value [2] was 18.4 ng/mL and the “Cmax (peak mean concentration), Day 14” value [2] was 30 ng/mL. For the same compound, the “mean Cmax plasma concentrations, range on all dosing days” value [2] was 18.4 to 44.1 ng/mL, the “median time to peak plasma concentrations, range on all dosing days and times” value [2] was 0.75 to 4 h and the “AUC0-12, Day 1” value [3] was 55.5 ng·h/mL. For the same compound, the “AUC0-24, Day 14” value [3] was 122 ng·h/mL, the C12 [4] was “BLQ” and the CL/F [4] was 1850 L/h. The Cmax/D [4] was 0.158 (ng/mL)/mg, the AUC0-12 [5] was 62.8 ng·h/mL and the “AUC0-∞” value [5] was 71.1 ng·h/mL. For the same compound, the C12 [5] was “BLQ”, the CL/F [5] was 2380 L/h and the Cmax/D [5] was 0.167 (ng/mL)/mg. For the same compound, the t1/2 [5] was 2.23 h, the AUC0-12 [6] was 78.2 ng·h/mL and the AUC0-24 [6] was 82.3 ng·h/mL. The AUC0-24/D [6] was 0.823 (hr*ng/mL)/mg, the “AUC0-∞” value [6] was 85 ng·h/mL and the C24 [6] was “BLQ”. The CL/F [6] was 1280 L/h, the Cmax [6] was 20.1 ng/mL and the Cmax/D [6] was 0.201 (ng/mL)/mg. The t1/2 [6] was 2.36 h, the AUC0-12 [7] was 92.4 ng·h/mL and the AUC0-24 [7] was 99.8 ng·h/mL. The AUC0-24/D [7] was 0.998 (hr*ng/mL)/mg, the “AUC0-∞” value [7] was 105 ng·h/mL and the C24 [7] was “BLQ”. For the same compound, the CL/F [7] was 1450 L/h, the Cmax/D [7] was 0.213 (ng/mL)/mg and the t1/2 [7] was 2.49 h. The AUC0-12 [8] was 51.2 ng·h/mL, the “AUC0-∞” value [8] was 51.7 ng·h/mL and the C12 [8] was “BLQ”. The CL/F [8] was 1940 L/h, the Cmax [8] was 17.7 ng/mL and the Cmax/D [8] was 0.177 (ng/mL)/mg. For the same compound, the t1/2 [8] was 1.37 h, the AUC0-12 [9] was 55.5 ng·h/mL and the “AUC0-∞” value [9] was 55.9 ng·h/mL. For the same compound, the C12 [9] was “BLQ”, the CL/F [9] was 2100 L/h and the Cmax [9] was 18.4 ng/mL. The Cmax/D [9] was 0.184 (ng/mL)/mg, the t1/2 [9] was 1.42 h and the AUC0-12 [10] was 136 ng·h/mL. For the same compound, the AUC0-24 [10] was 214 ng·h/mL, the AUC0-24/D [10] was 1.07 (hr*ng/mL)/mg and the “AUC0-∞” value [10] was 152 ng·h/mL. For the same compound, the CL/F [10] was 658 L/h, the Cmax [10] was 39.8 ng/mL and the Cmax/D [10] was 0.398 (ng/mL)/mg. It also gave a t1/2 [10] of 1.82 h, an AUC0-12 [11] of 143 ng·h/mL and an AUC0-24 [11] of 226 ng·h/mL. For the same compound, the AUC0-24/D [11] was 1.13 (hr*ng/mL)/mg, the “AUC0-∞” value [11] was 156 ng·h/mL and the CL/F [11] was 675 L/h. For the same compound, the Cmax [11] was 44.1 ng/mL, the Cmax/D [11] was 0.441 (ng/mL)/mg and the t1/2 [11] was 1.87 h. The AUC0-12 [12] was 127 ng·h/mL, the “AUC0-∞” value [12] was 137 ng·h/mL and the C12 [12] was “BLQ”. For the same compound, the CL/F [12] was 788 L/h, the Cmax [12] was 29.8 ng/mL and the Cmax/D [12] was 0.298 (ng/mL)/mg. For the same compound, the t1/2 [12] was 2.82 h, the AUC0-12 [13] was 129 ng·h/mL and the “AUC0-∞” value [13] was 139 ng·h/mL. The C12 [13] was “BLQ”, the CL/F [13] was 800 L/h and the Cmax [13] was 31.3 ng/mL. The Cmax/D [13] was 0.313 (ng/mL)/mg, the t1/2 [13] was 2.86 h and the AUC0-12 [14] was 142 ng·h/mL. The AUC0-24 [14] was 278 ng·h/mL, the AUC0-24/D [14] was 1.39 (hr*ng/mL)/mg and the “AUC0-∞” value [14] was 168 ng·h/mL. For the same compound, the C12 [14] was 6.27 ng/mL, the CL/F [14] was 699 L/h and the Cmax [14] was 25.8 ng/mL. For the same compound, the Cmax/D [14] was 0.258 (ng/mL)/mg, the t1/2 [14] was 3.52 h and the AUC0-12 [15] was 145 ng·h/mL. For the same compound, the AUC0-24 [15] was 282 ng·h/mL, the AUC0-24/D [15] was 1.41 (hr*ng/mL)/mg and the “AUC0-∞” value [15] was 173 ng·h/mL. For the same compound, the CL/F [15] was 717 L/h, the Cmax/D [15] was 0.284 (ng/mL)/mg and the t1/2 [15] was 3.80 h. The AUC0-12 [16] was 114 ng·h/mL, the AUC0-24 [16] was 121 ng·h/mL and the AUC0-24/D [16] was 1.21 (hr*ng/mL)/mg. The “AUC0-∞” value [16] was 121 ng·h/mL, the C12 [16] was “BLQ” and the C24 [16] was “BLQ”. The CL/F [16] was 874 L/h, the Cmax [16] was 28.5 ng/mL and the Cmax/D [16] was 0.285 (ng/mL)/mg. For the same compound, the t1/2 [16] was 2.64 h, the AUC0-12 [17] was 115 ng·h/mL and the AUC0-24 [17] was 122 ng·h/mL. The AUC0-24/D [17] was 1.22 (hr*ng/mL)/mg, the “AUC0-∞” value [17] was 122 ng·h/mL and the C12 [17] was “BLQ”. For the same compound, the C24 [17] was “BLQ”, the CL/F [17] was 880 L/h and the Cmax [17] was 30.0 ng/mL. For the same compound, the Cmax/D [17] was 0.300 (ng/mL)/mg, the t1/2 [17] was 2.73 h and the “Mean CL/F, Day 1” value (200 mg KAR5585 BID, fed) was 830 L/h. The “Mean steady-state CL/F, Day 14” value (200 mg KAR5585 BID, fed) was 1200 L/h, the “mean Cmax plasma concentrations, range on all dosing days” value (200 mg KAR5585 BID, fed, Cohort 3) was 42.6 to 90.9 ng/mL and the AUC0-12 [18] was 243 ng·h/mL. The “AUC0-∞” value [18] was 258 ng·h/mL, the C12 [18] was 5.60 ng/mL and the CL/F [18] was 774 L/h. The Cmax [18] was 80.7 ng/mL, the Cmax/D [18] was 0.403 (ng/mL)/mg and the t1/2 [18] was 2.81 h. For the same compound, the AUC0-12 [19] was 257 ng·h/mL, the “AUC0-∞” value [19] was 275 ng·h/mL and the C12 [19] was 5.61 ng/mL. The CL/F [19] was 830 L/h, the Cmax [19] was 87.8 ng/mL and the Cmax/D [19] was 0.439 (ng/mL)/mg. It also gave a t1/2 [19] of 2.91 h, an AUC0-12 [20] of 333 ng·h/mL and an AUC0-24 [20] of 583 ng·h/mL. The AUC0-24/D [20] was 1.46 (hr*ng/mL)/mg.

From patent US20240041877A1, “DOSAGE REGIME AND METHOD FOR TREATING PULMONARY ARTERIAL HYPERTENSION” (Altavant Sciences GmbH, priority 2019, published 2024)
